Counter-ions that a name gives are not always drawn.

One may read the inhibition as the percentage by which the read-out fell short of the control. For orientation: IC50 means the midpoint of a concentration-inhibition curve. A lower IC50 goes with greater potency. As usually defined, the melting point is the temperature, or range, at which the solid turns liquid.

T1 sequence (Q9Y233 267-1055): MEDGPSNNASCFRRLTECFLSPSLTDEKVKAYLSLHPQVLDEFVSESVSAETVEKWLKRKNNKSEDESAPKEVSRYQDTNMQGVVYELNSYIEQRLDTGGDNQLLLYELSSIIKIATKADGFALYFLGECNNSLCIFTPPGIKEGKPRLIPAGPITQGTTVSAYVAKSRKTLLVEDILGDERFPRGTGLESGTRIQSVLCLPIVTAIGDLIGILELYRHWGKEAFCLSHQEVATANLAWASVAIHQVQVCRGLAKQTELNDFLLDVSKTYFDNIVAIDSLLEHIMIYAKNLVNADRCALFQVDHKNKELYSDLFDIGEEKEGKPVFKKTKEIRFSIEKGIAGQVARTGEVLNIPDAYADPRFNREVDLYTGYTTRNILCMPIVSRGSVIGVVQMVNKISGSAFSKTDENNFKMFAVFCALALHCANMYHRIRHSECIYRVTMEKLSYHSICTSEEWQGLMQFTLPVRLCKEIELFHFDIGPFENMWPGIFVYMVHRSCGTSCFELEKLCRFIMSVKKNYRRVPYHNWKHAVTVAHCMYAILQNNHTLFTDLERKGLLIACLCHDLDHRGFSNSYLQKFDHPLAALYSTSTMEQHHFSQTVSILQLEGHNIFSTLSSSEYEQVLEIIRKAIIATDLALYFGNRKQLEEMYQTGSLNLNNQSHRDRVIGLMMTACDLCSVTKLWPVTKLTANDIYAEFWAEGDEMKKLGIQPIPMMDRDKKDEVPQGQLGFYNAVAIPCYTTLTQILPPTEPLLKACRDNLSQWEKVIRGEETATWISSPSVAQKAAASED

One data set concerns the target T1, Human PDE10A enzyme (Homo sapiens, UniProt Q9Y233).
T1 construct: Human PDE10A enzyme was generated from Sf9 or COS-7 cells transfected with the full-length gene; His-tag; made in house; host or cells: Sf9 or COS-7 cells
The data set is described as follows: PDE enzyme inhibition, SPA (Scintillation Proximity Assay). Particulars: Table 1; compound at 0.1 μM as noted in cell; read-out: Percent inhibition (at 0.1 μM). The class given is biochemical. The protocol:
Human PDE10A enzyme was generated from Sf9 or COS-7 cells transfected with the full-length gene. Cloned enzyme was extracted from homogenized cell pellets. The extracted enzyme from Sf9 cells was partially purified using His-tag affinity column. The enzyme was stored at −70° C. until use. PDE activity was measured using a SPA (Scintillation Proximity Assay) (GE Healthcare). To evaluate the inhibitory activity, 10 μL of serial diluted compounds were incubated with 20 μL of PDE enzyme in assay buffer (50 mM HEPES-NaOH, 8.3 mM MgCl2, 1.7 mM EGTA, 0.1% BSA (pH 7.4)) for 30 min. at room temperature. Final concentration of DMSO in the assay was 1 percent as compounds were tested in duplicate in 96-well half-area plates (Corning). To start the reaction, 10 μL of substrate [3H] cGMP (25 or 50 nM; enclosed in SPA kits from GE Healthcare or purchased from PerkinElmer, respectively) was added for a final assay volume of 40 μL. After 60 min incubation at room temperature, yttrium SPA beads containing Zinc sulphate were added (20 μL at 6 mg/mL) to terminate the PDE reaction. After being settled for 60 min., assay plates were counted in a scintillation counter (PerkinElmer) to allow calculation of inhibition rate and IC50. Inhibition rate was calculated on the basis of 0% control wells with DMSO and 100% control wells without enzyme.
In general terms: SPA uses beads or plates that emit light when radiolabelled molecules are held near them.
For `O=c1ccn(-c2cccnc2)nc1-c1ccnn1-c1ccccc1` [Example 30, 3-(1-Phenyl-1H-pyrazol-5-yl)-1-pyridin-3-ylpyridazin-4(1H)-one], the inhibition at 0.1 µM is 87%.

The same data set, now with this note: Table 1; human PDE10A, [3H]cGMP substrate.
Regarding `O=c1ccn(-c2cccnc2)nc1-c1ccnn1-c1ccccc1` [Example 30, 3-(1-Phenyl-1H-pyrazol-5-yl)-1-pyridin-3-ylpyridazin-4(1H)-one], the IC50 was 0.01 to 0.2 µM.

System in a further data set: not given
Experiment: not given
Settings: not given
On to `O=c1ccn(-c2cccnc2)nc1-c1ccnn1-c1ccccc1` [Example 30, 3-(1-Phenyl-1H-pyrazol-5-yl)-1-pyridin-3-ylpyridazin-4(1H)-one], for which the melting point is 176 to 177 °C.

Compound `O=c1ccn(-c2ccccc2N2CCOCC2)nc1-c1ccnn1-c1ccccc1` [Example 29, 1-(2-Morpholin-4-ylphenyl)-3-(1-phenyl-1H-pyrazol-5-yl)pyridazin-4(1H)-one] gave a melting point of 200 to 201 °C. Compound `Cc1cccc(-n2ccc(=O)c(-c3ccnn3-c3ccccc3)n2)c1` [Example 20, 1-(3-Methylphenyl)-3-(1-phenyl-1H-pyrazol-5-yl)pyridazin-4(1H)-one] yielded a melting point of 115 to 116 °C. The same measure, in the same setting: the figure for `O=c1ccn(-c2cccc3c2OC(F)(F)O3)nc1-c1ccnn1-c1ccccc1` [Example 142, 1-(2,2-Difluoro-1,3-benzodioxol-4-yl)-3-(1-phenyl-1H-pyrazol-5-yl)pyridazin-4(1H)-one] is 105 to 107 °C; for `O=c1ccn(-c2cccc(C(F)(F)F)c2)nc1-c1cn(C(c2ccccc2)(c2ccccc2)c2ccccc2)nc1-c1ccccc1` [Example 73, 3-(3-Phenyl-1-trityl-1H-pyrazol-4-yl)-1-[3-(trifluoromethyl)phenyl]pyridazin-4(1H)-one] it is 216 to 218 °C. The same measure, in the same setting: next, `Cn1cc(-c2nn(-c3cccc(C(F)(F)F)c3)ccc2=O)c(-c2ccccc2)n1` [Example 76, 3-(1-Methyl-3-phenyl-1H-pyrazol-4-yl)-1-[3-(trifluoromethyl)phenyl]pyridazin-4(1H)-one]: 181 to 183 °C; `O=c1ccn(-c2cccc(C(F)(F)F)c2)nc1-c1ccsc1-c1ccccc1` [Example 86, 3-(2-Phenylthiophen-3-yl)-1-[3-(trifluoromethyl)phenyl]pyridazin-4(1H)-one]: 167 to 168 °C. For the compound `COc1cn(-c2ccc(C(F)(F)F)cc2F)nc(-c2ccnn2-c2ccccc2)c1=O` [Example 56, 1-[2-Fluoro-4-(trifluoromethyl)phenyl]-5-methoxy-3-(1-phenyl-1H-pyrazol-5-yl)pyridazin-4(1H)-one], the melting point lay within 169 to 171 °C. The same measure, in the same setting: next, `O=c1ccn(-c2cccc(C(F)(F)F)c2)nc1-c1ccoc1-c1ccccc1` [Example 85, 3-(2-Phenylfuran-3-yl)-1-[3-(trifluoromethyl)phenyl]pyridazin-4(1H)-one]: 159 to 163 °C; `COc1cn(-c2cccc(C(F)(F)F)c2)nc(-n2ccnc2-c2ccccc2)c1=O` [Example 82, 5-Methoxy-3-(2-phenyl-1H-imidazol-1-yl)-1-[3-(trifluoromethyl)phenyl]pyridazin-4(1H)-one]: 167 to 170 °C. Same read-out and setting: next, `Cc1cccc(-n2nccc2-c2nn(-c3cccc(C(F)(F)F)c3)ccc2=O)c1` [Example 5, 3-[1-(3-Methylphenyl)-1H-pyrazol-5-yl]-1-[3-(trifluoromethyl)phenyl]pyridazin-4(1H)-one]: 142 to 143 °C; `O=c1ccn(-c2cccc(OC(F)F)c2)nc1-c1ccnn1-c1ccccc1` [Example 27, 1-[3-(Difluoromethoxy)phenyl]-3-(1-phenyl-1H-pyrazol-5-yl)pyridazin-4(1H)-one]: 159 to 160 °C; `Cc1ccccc1-n1nccc1-c1nn(-c2cccc(C(F)(F)F)c2)ccc1=O` [Example 7, 3-[1-(2-Methylphenyl)-1H-pyrazol-5-yl]-1-[3-(trifluoromethyl)phenyl]pyridazin-4(1H)-one]: 126 to 127 °C. Still for that read-out and setting: next, `COc1cn(-c2ccc(OS(=O)(=O)C(F)(F)F)cc2F)nc(-c2ccnn2-c2ccccc2)c1=O` (as salt: methanesulfonate) [Example 93, 3-Fluoro-4-[5-methoxy-4-oxo-3-(1-phenyl-1H-pyrazol-5-yl)pyridazin-1(4H)-yl]phenyl trifluoromethanesulfonate]: 108 to 110 °C. In turn, `O=c1ccn(-c2cccc(C(F)(F)F)c2)nc1-c1cc(C(F)(F)F)nn1-c1ccccc1` [Example 70, 3-[1-Phenyl-3-(trifluoromethyl)-1H-pyrazol-5-yl]-1-[3-(trifluoromethyl)phenyl]pyridazin-4(1H)-one] came in with a melting point of 190 to 191 °C. With `COc1ccccc1-n1nccc1-c1nn(-c2cccc(C(F)(F)F)c2)ccc1=O` [Example 9, 3-[1-(2-Methoxyphenyl)-1H-pyrazol-5-yl]-1-[3-(trifluoromethyl)phenyl]pyridazin-4(1H)-one], the melting point fell in the range of 146 to 147 °C. Still for that read-out and setting: next, `O=c1ccn(-c2cccc(Cl)c2)nc1-c1ccnn1-c1ccccc1` [Example 12, 1-(3-Chlorophenyl)-3-(1-phenyl-1H-pyrazol-5-yl)pyridazin-4(1H)-one]: 146 to 147 °C. `O=c1ccn(-c2cccc(C(F)(F)F)c2)nc1-c1c[nH]nc1-c1ccccc1` [Example 74, 3-(3-Phenyl-1H-pyrazol-4-yl)-1-[3-(trifluoromethyl)phenyl]pyridazin-4(1H)-one] had a melting point of 206 to 208 °C.

Turning to `O=c1ccn(-c2cccc(C(F)(F)F)c2)nc1-c1ccnn1Cc1ccccc1` [Example 153, 3-(1-Benzyl-1H-pyrazol-5-yl)-1-[3-(trifluoromethyl)phenyl]pyridazin-4(1H)-one], the melting point is 156 to 157 °C.

As to `O=c1ccn(-c2cccc(C(F)(F)F)c2)nc1-c1ccnn1-c1ccccc1Cl` [Example 8, 3-[1-(2-Chlorophenyl)-1H-pyrazol-5-yl]-1-[3-(trifluoromethyl)phenyl]pyridazin-4(1H)-one], the melting point lay in the range of 139 to 140 °C. For the compound `Cn1cnc(-c2ccccc2)c1-c1nn(-c2cccc(C(F)(F)F)c2)ccc1=O` [Example 84, 3-(1-Methyl-4-phenyl-1H-imidazol-5-yl)-1-[3-(trifluoromethyl)phenyl]pyridazin-4(1H)-one], the melting point was 214 to 216 °C.

In the case of `O=c1ccn(-c2ccccc2)nc1-c1ccnn1-c1ccccc1` [Example 24, 1-Phenyl-3-(1-phenyl-1H-pyrazol-5-yl)pyridazin-4(1H)-one], the melting point fell in the range of 179 to 180 °C. Still for that read-out and setting: next, `O=c1c(Br)cn(-c2cccc(C(F)(F)F)c2)nc1-c1ccnn1-c1ccccc1` [Example 67, 5-Bromo-3-(1-phenyl-1H-pyrazol-5-yl)-1-[3-(trifluoromethyl)phenyl]pyridazin-4(1H)-one]: 145 to 146 °C; `COc1cn(-c2cc3c(cc2F)OC(F)(F)O3)nc(-c2ccnn2-c2ccccc2)c1=O` [Example 95, 5-Methoxy-3-(1-phenyl-1H-pyrazol-5-yl)-1-(2,2,6-trifluoro-1,3-benzodioxol-5-yl)pyridazin-4(1H)-one]: 200 to 202 °C; `COc1cn(-c2ccncc2)nc(-c2ccnn2-c2ccccc2)c1=O` [Example 87, 5-Methoxy-3-(1-phenyl-1H-pyrazol-5-yl)-1-pyridin-4-ylpyridazin-4(1H)-one]: 195 to 197 °C. On to `COc1ccc(-n2ccc(=O)c(-c3ccnn3-c3ccccc3)n2)cc1` [Example 14, 1-(4-Methoxyphenyl)-3-(1-phenyl-1H-pyrazol-5-yl)pyridazin-4(1H)-one], for which the melting point lay within 179 to 180 °C.

The compound `COc1cn(-c2cccnc2)nc(-c2ccnn2-c2ccccc2)c1=O` [Example 173, 5-Methoxy-3-(1-phenyl-1H-pyrazol-5-yl)-1-pyridin-3-ylpyridazin-4(1H)-one] yielded a melting point of 210 to 212 °C. Same read-out and setting: the figure for `O=c1cc(O)n(-c2cccc(C(F)(F)F)c2)nc1-c1ccnn1-c1ccccc1` [Example 69, 6-Hydroxy-3-(1-phenyl-1H-pyrazol-5-yl)-1-[3-(trifluoromethyl)phenyl]pyridazin-4(1H)-one] is 241 to 243 °C; for `Cc1ccccc1-n1ccc(=O)c(-c2ccnn2-c2ccccc2)n1` [Example 19, 1-(2-Methylphenyl)-3-(1-phenyl-1H-pyrazol-5-yl)pyridazin-4(1H)-one] it is 120 to 121 °C. On the same count and under the same terms, the figure for `O=c1ccn(-c2cccc(C(F)(F)F)c2)nc1-c1ccnn1CC1CC1` [Example 152, 3-[1-(Cyclopropylmethyl)-1H-pyrazol-5-yl]-1-[3-(trifluoromethyl)phenyl]pyridazin-4(1H)-one] is 155 to 157 °C. On the same count and under the same terms, the figure for `COc1cn(-c2cccc3cccnc23)nc(-c2ccnn2-c2ccccc2)c1=O` [Example 88, 5-Methoxy-3-(1-phenyl-1H-pyrazol-5-yl)-1-quinolin-8-ylpyridazin-4(1H)-one] is 189 to 192 °C; for `COc1cn(-c2ccc(N3CC4(CC4)OC3=O)cc2F)nc(-c2ccnn2-c2ccccc2)c1=O` [Example 191, 6-{3-Fluoro-4-[5-methoxy-4-oxo-3-(1-phenyl-1H-pyrazol-5-yl)pyridazin-1(4H)-yl]phenyl}-4-oxa-6-azaspiro[2.4]heptan-5-one] it is 200 to 201 °C. On to `Cc1cn(-c2cccc(C(F)(F)F)c2)nc(-c2ccnn2-c2ccccc2)c1=O` [Example 50, 5-Methyl-3-(1-phenyl-1H-pyrazol-5-yl)-1-[3-(trifluoromethyl)phenyl]pyridazin-4(1H)-one], for which the melting point was in the range of 147 to 150 °C.

These data come from US8513251B2, “Pyridazinone compounds” (Takeda Pharmaceutical Company Limited, priority 2009, dated 2013).
